Data from article PMC10415349, “Structural basis of agonist specificity of α1A-adrenergic receptor” (Nature Communications, 2023).

Tests used:
[1] = biological target: T1, α1A-AR(V185A, A189S, M292L) (Homo sapiens, UniProt P35348, V185A/A189S/M292L)
T1 construct: gene ADRA1A

[2] = biological target: T2, α1B-AR(A204V, S208A, L314M) (Homo sapiens, UniProt P35368, A204V/L314M/S208A); experiment: Ca2+ imaging (GCaMP6f) in transfected HEK293T cells; format: cell-based
T2 construct: gene ADRA1B
T2 sequence (P35368 1-520 A204V/S208A/L314M): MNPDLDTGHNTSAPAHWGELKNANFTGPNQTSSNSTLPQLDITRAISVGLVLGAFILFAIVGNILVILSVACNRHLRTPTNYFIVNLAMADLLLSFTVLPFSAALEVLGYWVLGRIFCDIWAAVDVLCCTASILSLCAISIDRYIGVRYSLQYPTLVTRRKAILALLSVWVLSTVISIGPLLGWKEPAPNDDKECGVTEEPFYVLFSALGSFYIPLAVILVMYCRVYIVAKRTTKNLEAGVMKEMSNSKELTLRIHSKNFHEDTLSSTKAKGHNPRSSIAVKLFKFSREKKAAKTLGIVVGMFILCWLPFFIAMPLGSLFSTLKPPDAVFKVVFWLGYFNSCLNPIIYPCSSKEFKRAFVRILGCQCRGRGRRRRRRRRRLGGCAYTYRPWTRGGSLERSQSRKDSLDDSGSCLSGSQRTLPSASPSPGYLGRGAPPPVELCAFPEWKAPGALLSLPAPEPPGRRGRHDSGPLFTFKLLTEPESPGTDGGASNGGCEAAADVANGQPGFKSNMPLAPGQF

T1 sequence (P35348 whole entry V185A/A189S/M292L): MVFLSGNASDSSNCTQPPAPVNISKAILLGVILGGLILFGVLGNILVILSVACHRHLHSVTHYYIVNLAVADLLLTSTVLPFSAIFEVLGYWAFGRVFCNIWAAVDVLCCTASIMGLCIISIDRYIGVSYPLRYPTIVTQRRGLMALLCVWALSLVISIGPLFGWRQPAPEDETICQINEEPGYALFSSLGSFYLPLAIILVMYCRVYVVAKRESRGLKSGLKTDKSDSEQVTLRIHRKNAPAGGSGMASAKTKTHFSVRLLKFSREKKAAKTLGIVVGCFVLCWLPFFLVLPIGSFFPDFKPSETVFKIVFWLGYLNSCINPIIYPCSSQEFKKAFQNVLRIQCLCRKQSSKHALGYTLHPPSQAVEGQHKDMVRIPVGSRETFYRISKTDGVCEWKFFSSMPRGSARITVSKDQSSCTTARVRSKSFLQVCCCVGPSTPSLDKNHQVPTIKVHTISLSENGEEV

Compound | Ca2+ imaging (GCaMP6f) in transfected HEK293T cells, saturating concentration [1] | EC50 [2] [nM]
CNC[C@H](O)c1ccc(O)c(O)c1 [epinephrine] | This triple mutant was still functional in response to epinephrine | 
CS(=O)(=O)Nc1c(O)ccc2c1CCCC2C1=NCCN1 (centres unmarked) [A61603] |  | ~10
